# Experimental data reported in patent US20160145247A1, “Aminomethyl-Biaryl Derivatives Complement Factor D inhibitors and uses thereof” (NOVARTIS AG, priority 2013, published 2016).
# Molecular target: T1, factor D (Homo sapiens, UniProt P00746)
# T1 construct: made in house; host or cells: E. coli
# Experiment: factor D inhibition assay of Biological Example 2
# Assay type: biochemical
# T1 sequence (P00746 26-253): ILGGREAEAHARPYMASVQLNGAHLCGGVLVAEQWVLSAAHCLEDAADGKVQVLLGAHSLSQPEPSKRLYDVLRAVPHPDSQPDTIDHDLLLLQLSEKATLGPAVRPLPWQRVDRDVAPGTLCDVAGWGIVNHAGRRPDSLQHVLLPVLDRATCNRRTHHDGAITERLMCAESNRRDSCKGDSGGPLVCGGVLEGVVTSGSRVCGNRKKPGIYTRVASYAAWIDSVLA
row,SMILES,IC50 [nM]
1,"NCc1cccc(-c2c[nH]c(C(=O)Nc3ccccc3CC(=O)O)n2)c1 [Example 47, 2-(2-(4-(3-(Aminomethyl)phenyl)-1H-imidazole-2-carboxamido)phenyl)acetic acid]",1930
2,"NCc1cccc(-c2cccc(S(=O)(=O)Nc3ccccc3CC(=O)O)c2)c1 [Example 48, 2-(2-(3′-(Aminomethyl)-[1,1′-biphenyl]-3-ylsulfonamido)phenyl)acetic acid]",2890
3,"NCc1cc(F)cc(-c2cccc(S(=O)(=O)Nc3ccccc3CC(=O)O)c2)c1 [Example 49, 2-(2-(3′-(aminomethyl)-5′-fluoro-[1,1′-biphenyl]-3-ylsulfonamido)phenyl)acetic acid]",2270
4,"NCc1cccc(-c2cc(NC3CC3)cc(C(=O)Nc3ccccc3CC(=O)O)n2)c1 [Example 50, 2-(2-(6-(3-(aminomethyl)phenyl)-4-(cyclopropylamino)picolinamido)phenyl)acetic acid]",2
5,"NCc1cccc(-c2cc(N3CCN(c4ccccc4)CC3)cc(C(=O)Nc3ccccc3CC(=O)O)n2)c1 [Example 51, 2-(2-(6-(3-(Aminomethyl)phenyl)-4-(4-phenylpiperazin-1-yl)picolinamido)phenyl)acetic acid]",6
6,"NCc1cccc(-c2cc(-c3ccccc3)cc(C(=O)Nc3ccccc3CC(=O)O)n2)c1 [Example 52, 2-(2-(6-(3-(Aminomethyl)phenyl)-4-phenylpicolinamido)phenyl)acetic acid]",7
7,"NCc1cccc(-c2cc(NCc3ccccc3)cc(C(=O)Nc3ccccc3CC(=O)O)n2)c1 [Example 53, 2-(2-(6-(3-(Aminomethyl)phenyl)-4-(benzylamino)picolinamido)phenyl)acetic acid]",3
8,"NCc1cccc(-c2cc(NCC(F)(F)F)cc(C(=O)Nc3ccccc3CC(=O)O)n2)c1 [Example 54, 2-(2-(6-(3-(Aminomethyl)phenyl)-4-((2,2,2-trifluoroethyl)amino)picolinamido)phenyl)acetic acid]",3
9,"NCc1cccc(-c2cc(O)cc(C(=O)Nc3ccccc3CC(=O)O)n2)c1 [Example 55, 2-(2-(6-(3-(Aminomethyl)phenyl)-4-hydroxypicolinamido)phenyl)acetic acid]",13
10,"NCc1cccc(-c2ccc(Cl)c(C(=O)Nc3ccccc3CC(=O)O)n2)c1 [Example 56-A, 2-(2-(6-(3-(Aminomethyl)phenyl)-3-chloropicolinamido)phenyl)acetic acid]",107
11,"NCc1cccc(-c2ccc(-c3cccc(CN)c3)c(C(=O)Nc3ccccc3CC(=O)O)n2)c1 [Example 56-B, 2-(2-(3,6-bis(3-(Aminomethyl)phenyl)picolinamido)phenyl)acetic acid]",117
12,"NCc1cccc(-c2cc(O)cc(C(=O)Nc3ccccc3CC(=O)O)c2)c1 [Example 59-C, 2-(2-(3′-(Aminomethyl)-5-hydroxy-[1,1′-biphenyl]-3-ylcarboxamido)phenyl)acetic acid]",95
13,"NCc1cc(F)cc(-c2cc(O)cc(C(=O)Nc3ccccc3CC(=O)O)c2)c1 [Example 60, 2-(2-(3′-(Aminomethyl)-5′-fluoro-5-hydroxy-[1,1′-biphenyl]-3-ylcarboxamido)phenyl)acetic acid]",47
14,"NCc1cccc(-c2cc(OCc3ncccn3)cc(C(=O)Nc3ccccc3CC(=O)O)c2)c1 [Example 61-B, 2-(2-(3′-(Aminomethyl)-5-(pyrimidin-2-ylmethoxy)-[1,1′-biphenyl]-3-ylcarboxamido)phenyl)acetic acid]",32
15,"NCc1cccc(-c2cc(OCc3ccncc3)cc(C(=O)Nc3ccccc3CC(=O)O)c2)c1 [Example 62, 2-(2-(3′-(Aminomethyl)-5-(pyridin-4-ylmethoxy)-[1,1′-biphenyl]-3-ylcarboxamido)phenyl)acetic acid]",54
16,"NCc1cc(F)cc(-c2cc(OCc3ccncc3)cc(C(=O)Nc3ccccc3CC(=O)O)c2)c1 [Example 65, 2-(2-(3′-(Aminomethyl)-5′-fluoro-5-(pyridin-4-ylmethoxy)-[1,1′-biphenyl]-3-ylcarboxamido)phenyl)acetic acid]",17
17,"Cn1ccc(COc2cc(C(=O)Nc3ccccc3CC(=O)O)cc(-c3cccc(CN)c3)c2)n1 [Example 66, 2-(2-(3′-(Aminomethyl)-5-((1-methyl-1H-pyrazol-3-yl)methoxy)-[1,1′-biphenyl]-3-ylcarboxamido)phenyl)acetic acid]",33
18,"CC(=O)Nc1cc(C(=O)Nc2ccccc2CC(=O)O)cc(-c2cc(F)cc(CN)c2)c1 [Example 67-B, 2-(2-(5-Acetamido-3′-(aminomethyl)-5′-fluoro-[1,1′-biphenyl]-3-ylcarboxamido)phenyl)acetic acid]",30
19,"CCOC(=O)Cc1ccccc1NC(=O)c1cc(NC(C)=O)cc(-c2cc(F)cc(CN)c2)c1 [Example 67-C, Ethyl 2-(2-(5-acetamido-3′-(aminomethyl)-5′-fluoro-[1,1′-biphenyl]-3-ylcarboxamido)phenyl)acetate]",2930
20,"NCc1cc(F)cc(-c2cc(OCc3ncccn3)cc(C(=O)Nc3ccccc3CC(=O)O)c2)c1 [Example 68, 2-(2-(3′-(Aminomethyl)-5′-fluoro-5-(pyrimidin-2-ylmethoxy)-[1,1′-biphenyl]-3-ylcarboxamido)phenyl)acetic acid]",20
21,"Cn1ccc(COc2cc(C(=O)Nc3ccccc3CC(=O)O)cc(-c3cc(F)cc(CN)c3)c2)n1 [Example 69, 2-(2-(3′-(Aminomethyl)-5′-fluoro-5-((1-methyl-1H-pyrazol-3-yl)methoxy)-[1,1′-biphenyl]-3-ylcarboxamido)phenyl)acetic acid]",26

row,SMILES,IC50 [nM]
1,"CNC(=O)c1cc(COc2cc(C(=O)Nc3ccccc3CC(=O)O)cc(-c3cccc(CN)c3)c2)ccn1 [Example 70, 2-(2-(3′-(Aminomethyl)-5-((2-(methylcarbamoyl)pyridin-4-yl)methoxy)-[1,1′-biphenyl]-3-ylcarboxamido)phenyl)acetic acid]",11
2,"CNC(=O)c1cc(COc2cc(C(=O)Nc3ccccc3CC(=O)O)cc(-c3cc(F)cc(CN)c3)c2)ccn1 [Example 71, 2-(2-(3′-(Aminomethyl)-5′-fluoro-5-((2-(methylcarbamoyl)pyridin-4-yl)methoxy)-[1,1′-biphenyl]-3-ylcarboxamido)phenyl)acetic acid]",9
3,"COCCOc1cc(C(=O)Nc2ccccc2CC(=O)O)cc(-c2cccc(CN)c2)c1 [Example 72-B, 2-(2-(3′-(Aminomethyl)-5-(2-methoxyethoxy)-[1,1′-biphenyl]-3-ylcarboxamido)phenyl)acetic acid]",58
4,"COCCOc1cc(C(=O)Nc2ccccc2CC(=O)O)cc(-c2cc(F)cc(CN)c2)c1 [Example 73-C, 2-(2-(3′-(Aminomethyl)-5′-fluoro-5-(2-methoxyethoxy)-[1,1′-biphenyl]-3-ylcarboxamido)phenyl)acetic acid]",22
5,"NCc1cccc(-c2cc(OC[C@H]3CCCO3)cc(C(=O)Nc3ccccc3CC(=O)O)c2)c1 [Example 74-D, (R)-2-(2-(3′-(Aminomethyl)-5-((tetrahydrofuran-2-yl)methoxy)-[1,1′-biphenyl]-3-ylcarboxamido)phenyl)acetic acid]",9
6,"N[C@H](CO)c1cccc(-c2cccc(COc3c(F)cccc3CC(=O)O)c2)c1 [Example 75-B, (S)-2-(2-((3′-(1-Amino-2-hydroxyethyl)-[1,1′-biphenyl]-3-yl)methoxy)-3-fluorophenyl)acetic acid]",26
7,"NCc1cc(F)cc(-c2cc(OC[C@H]3CCCO3)cc(C(=O)Nc3ccccc3CC(=O)O)c2)c1 [Example 76, (R)-2-(2-(3′-(Aminomethyl)-5′-fluoro-5-((tetrahydrofuran-2-yl)methoxy)-[1,1′-biphenyl]-3-ylcarboxamido)phenyl)acetic acid]",6
8,"NCc1cc(F)cc(-c2cc(C(=O)Nc3ccccc3CC(=O)O)cc(N3CCOCC3)c2)c1 [Example 77-B, 2-(2-(3′-(Aminomethyl)-5′-fluoro-5-morpholino-[1,1′-biphenyl]-3-ylcarboxamido)phenyl)acetic acid]",55
9,"Cn1nc(C2CC2)cc1Nc1cc(C(=O)Nc2ccccc2CC(=O)O)cc(-c2cc(F)cc(CN)c2)c1 [Example 78-B, 2-(2-(3′-(Aminomethyl)-5-((3-cyclopropyl-1-methyl-1H-pyrazol-5-yl)amino)-5′-fluoro-[1,1′-biphenyl]-3-ylcarboxamido)phenyl)acetic acid]",22
10,NCc1cc(F)cc(-c2cc(NCC3CCOC3)cc(C(=O)Nc3ccccc3CC(=O)O)c2)c1 (centres unmarked) [Example 79-A],5
11,NCc1cc(F)cc(-c2cc(NC3CCOC3)cc(C(=O)Nc3ccccc3CC(=O)O)c2)c1 (centres unmarked) [Example 79-B],9
12,Cn1ccc(Nc2cc(C(=O)Nc3ccccc3CC(=O)O)cc(-c3cc(F)cc(CN)c3)c2)n1 [Example 79-C],22
13,NCc1cc(F)cc(-c2cc(NC3CCOCC3)cc(C(=O)Nc3ccccc3CC(=O)O)c2)c1 [Example 79-D],14
14,NCc1cc(F)cc(-c2cc(NCC3CCOCC3)cc(C(=O)Nc3ccccc3CC(=O)O)c2)c1 [Example 79-E],12
15,NCc1cc(F)cc(-c2cc(NC[C@@H]3CCCO3)cc(C(=O)Nc3ccccc3CC(=O)O)c2)c1 [Example 79-F],6
16,NCc1cc(F)cc(-c2cc(Nc3ccn[nH]3)cc(C(=O)Nc3ccccc3CC(=O)O)c2)c1 [Example 79-G],22
17,Cc1cc(Nc2cc(C(=O)Nc3ccccc3CC(=O)O)cc(-c3cc(F)cc(CN)c3)c2)[nH]n1 [Example 79-H],17
18,Cc1cc(Nc2cc(C(=O)Nc3ccccc3CC(=O)O)cc(-c3cc(F)cc(CN)c3)c2)n(C)n1 [Example 79-I],19
19,"C[C@@H](N)c1cccc(-c2cc(OC[C@@H]3CCCO3)cc(C(=O)Nc3ccccc3CC(=O)O)c2)c1 [Example 80-C, 2-(2-(3′-((R)-1-Aminoethyl)-5-(((S)-tetrahydrofuran-2-yl)methoxy)-[1,1′-biphenyl]-3-ylcarboxamido)phenyl)acetic acid]",143
20,"N[C@H](CO)c1cccc(-c2cc(OC[C@@H]3CCCO3)cc(C(=O)Nc3ccccc3CC(=O)O)c2)c1 [Example 81, 2-(2-(3′-((S)-1-Amino-2-hydroxyethyl)-5-(((S)-tetrahydrofuran-2-yl)methoxy)-[1,1′-biphenyl]-3-ylcarboxamido)phenyl)acetic acid]",20
